In patent US5349127A, “Expression of herbicide metabolizing cytochromes P450” (priority 1992, dated 1994) one finds concentration in supernatant and 10014 levels data, which are given here for two molecules.

The test system of series [1] is S. lividans pCAO200SU1-FeS-B#9. As to the kind of experiment: Sulfonylurea metabolism by washed cell suspension (Examples 6-9). To be noted: substrate 10010. In kind it is in vitro ADME, Streptomyces lividans. Here is the method: Herbicides and their metabolites are measured by HPLC as described by Romesser et al., BBRC 140: 650-659 (1986), herein incorporated by reference, except that 0.1% H3 PO4 is used in both solvents. Chromatographic identity and quantitation of the herbicides and their resulting metabolites is determined by comparing them chromatographically with authentic standard compounds. Identity of the resulting metabolites is also confirmed by UV spectroscopy.
A 100 ml culture of S. griseolus ATCC 11796 in sporulation broth and a 50 ml culture of S. lividans transformed with pCAO400 in YEME broth were prepared and incubated for 24 hours as described. At that time, the S. griseolus culture was split into two 50 ml aliquots into two separate flasks and 25 ml of fresh sporulation broth was added to each and 9 mg of […] was added to one of these cultures to induce cytochrome P450SU1 expression. Fresh YEME broth (25 ml) was added to the S. lividans culture. After an additional 6 hours growth at 30° C., the cells in each culture were harvested as described above, washed twice with MOPS (50 mM, pH 7.2) and recentrifuged. The cell pellets were resuspended in four cell volumes of MOPS (50 mM, pH 7.2) containing 0.2% glucose and about 100 μg/ml of 10004. These cell suspensions were incubated at 30° C. with shaking and aliqouts were taken at 2 and 5.5 hours. The supernatant of each aliquot was analyzed by HPLC and the concentrations of the sulfonylurea compound 10004 and its metabolite 10005 were determined.
S. lividans transformed respectively with pCAO200SU1-FeS-B#9, pCAO200SU#112and pCAO200 were cultured for 36 hours in 400 ml of YEME broth at 30° C. S. griseolus ATCC 11796 was similarly cultured in 400 ml of sporulation broth. Six hours before harvesting the cells, 150 ml of fresh YEME broth was added to the S. lividans cells, and the S. griseolus cells were split into two 200 ml cultures with 100 ml of fresh sporulation broth added to each. 10001 (36 mg) was added to one of the two S. griseolus cultures to induce cytochrome P450SU1. […]

The subject of series [2] is S. lividans pCAO200SU1#12. The series is described as above. To be noted: substrate 10010. In kind it is in vitro ADME, Streptomyces lividans. On the procedure:
Herbicides and their metabolites are measured by HPLC as described by Romesser et al., BBRC 140: 650-659 (1986), herein incorporated by reference, except that 0.1% H3 PO4 is used in both solvents. Chromatographic identity and quantitation of the herbicides and their resulting metabolites is determined by comparing them chromatographically with authentic standard compounds. Identity of the resulting metabolites is also confirmed by UV spectroscopy. […]
S. lividans transformed respectively with pCAO200SU1-FeS-B#9, pCAO200SU#112and pCAO200 were cultured for 36 hours in 400 ml of YEME broth at 30° C. S. griseolus ATCC 11796 was similarly cultured in 400 ml of sporulation broth. Six hours before harvesting the cells, 150 ml of fresh YEME broth was added to the S. lividans cells, and the S. griseolus cells were split into two 200 ml cultures with 100 ml of fresh sporulation broth added to each. 10001 (36 mg) was added to one of the two S. griseolus cultures to induce cytochrome P450SU1. The cells were prepared as described above in Example 5 and the concentrations of the sulfonylurea compound 10006 and its metabolites 10007, 10008 or 10009 were determined.

Series [3] relates to S. lividans pCAO200. Described as above. In kind it is in vitro ADME, Streptomyces lividans. The settings on record: substrate 10010.
Series [4] has as its system leaves of transformed tobacco. As to the kind of experiment: Metabolism of 10015 to 10014 in excised tobacco leaves (Example 20). The format is in vitro ADME, Nicotiana tabacum. Here is the method:
Plants were grown from tobacco seed produced by self-pollinated transformed plants in Metro-Mix® 350 under 16 hour light (light intensity of 400 μEinsteins per second per square meter at pot level, 22° C. and 80% relative humidity) followed by 8 hours of dark (18° C. and 70 to 80% relative humidity) and watered three times daily with half strength Hoagland's solution. The presence of the cytochrome P450 protein in individual plants was confirmed by Western blot analysis before testing for sulfonylurea metabolism.
During growth, the tobacco plants produced leaves attached to the main stalk, none of which were of the same age or size. Removal of leaves attached to the main stalk of each plant forced the growth of lateral shoots which in turn produced the many leaves of similar size and age needed for the experiments. The leaves were excised under water with a scalpel. These leaves were transferred to cups with the uptake solution (20 ppm sulfonylurea in 1 mM potassium phosphate buffer, pH 7.0) and allowed to take up the solution through the cut leaf base for 2 hours in the light (200 μEinsteins per second per sq. meter) at 22° C. and 86% relative humidity. At the end of the uptake period, sample leaves were either frozen in liquid nitrogen and stored at -20° C. (designated '0 hour post-uptake samples') or transferred to cups with phosphate buffer alone for an additional 5 hours of incubation in the light before freezing (designated 5 hour post-uptake samples'). In the 10001 experiments some leaves were incubated for 21 hours post-uptake under continuous light (200 μEinsteins per second per square meter, 22° C., and 63% relative humidity).
Individual leaves were extracted with 30 ml acetone/water (80%/20% by volume) for 1 minute in a Sorvall® Omni-Mixer. The brei was centrifuged to remove the tissue debris. Acetone in the supernatant was removed under a stream of nitrogen. The resulting aqueous extract was acidified to pH 2 to 3 with sulfuric acid and then extracted three times with methylene chloride. The combined methylene chloride extracts were reduced to dryness by rotary evaporation at 30° to 40° C. The dry residue was dissolved in acetone for transfer to a vial. Once transferred the acetone was removed by evaporation under a stream of nitrogen. Before HPLC analysis the dry sample was redissolved in 1.0 ml of acetonitrile/water (25%/75%). HPLC separations were carried out on a Zorbax® ODS column (4.6 mm×250 man) at 45° C. with a flow rate of 1.4 ml per minute. […] 10015 and its metabolites were detected at 254 nm while ^14 C-10001 and its metabolites were detected with a Radiomatic Flo-One® detector. A diode array detector was used in separate experiments to obtain the absorbance spectra of the 10015 metabolite and an 10014 standard in the HPLC analysis of several extracts (HPLC method is described in Romesser et al., Biochem. Biophys. Res. Comm., 140:650-659 (1986)). Comparison of the metabolite absorbance spectrum with that of the 10014 confirmed the metabolite's identity.

Consider `COC(=O)c1ccccc1S(=O)(=O)NC(=O)Nc1nc(C)cc(C(=O)O)n1` [compound 10012, N-[(4-carboxy-6-methylpyrimidin-2yl)aminocarbonyl]-2-methoxycarbonylbenzenesulfonamide], for which the concentration in supernatant stood at 2 µM in series [1] (2 h); 12 µM in series [1] (4 h); 20 µM in series [1] (6 h); 0 nM in series [2] (2 h); 0 nM in series [2] (4 h); 0 nM in series [2] (6 h). The concentration in supernatant in series [3] (2 h), in series [3] (4 h) and in series [3] (6 h) was 0 nM throughout.
As to `COc1cc(OC)nc(NC(=O)NS(=O)(=O)c2cccc3c2S(=O)(=O)NC3)n1` [compound 10014, 2,3-dihydro-N-[(4,6-dimethoxypyrimidin-yl)aminocarbonyl]-1,2-benzisothiazol-7-sulfonamide-1,1-dioxide], the 10014 levels is 0 μg/leaf in series [4] (AGS112 (control, no P450SU1), 0 hour post-uptake); 0 μg/leaf in series [4] (AGS112 (control, no P450SU1), 5 hour post-uptake); 1.3 μg/leaf in series [4] (Cab-SU131.5 (chloroplast directed), 0 hour post-uptake); 2.9 μg/leaf in series [4] (Cab-SU131.5 (chloroplast directed), 5 hour post-uptake); 2.1 μg/leaf in series [4] (SSU-SU111.5 (chloroplast directed), 0 hour post-uptake); 1.8 μg/leaf in series [4] (SSU-SU111.5 (chloroplast directed), 5 hour post-uptake). Also, the 10014 levels in series [4] (SSU-SU121.3 (chloroplast directed), 0 hour post-uptake) was 1.2 μg/leaf; in series [4] (SSU-SU121.3 (chloroplast directed), 5 hour post-uptake) it was 1.7 μg/leaf; in series [4] (SU18.15 (cytoplasm directed), 0 hour post-uptake), 0 μg/leaf; in series [4] (SU18.15 (cytoplasm directed), 5 hour post-uptake), 0 μg/leaf; in series [4] (SU18.8 (cytoplasm directed), 0 hour post-uptake), 0 μg/leaf; in series [4] (SU18.8 (cytoplasm directed), 5 hour post-uptake), 0 μg/leaf. Moreover, the 10014 levels came out at 0 μg/leaf in series [4] (W38, 20 ppm 10015 uptake 2 h, 0 hour post-uptake) and 0 μg/leaf in series [4] (W38, 20 ppm 10015 uptake 2 h, 5 hour post-uptake).
